{
  "source": "patent US6344471B1",
  "about": "(priority 1998, dated 2002)",
  "key": {"[1]": {"biological_target": "high-affinity DFP binding site", "set-up": "species or system rat"}, "acetylcholinesterase": {"biological_target": "acetylcholinesterase (Rattus norvegicus, UniProt P37136)", "sequence (P37136 32-614)": "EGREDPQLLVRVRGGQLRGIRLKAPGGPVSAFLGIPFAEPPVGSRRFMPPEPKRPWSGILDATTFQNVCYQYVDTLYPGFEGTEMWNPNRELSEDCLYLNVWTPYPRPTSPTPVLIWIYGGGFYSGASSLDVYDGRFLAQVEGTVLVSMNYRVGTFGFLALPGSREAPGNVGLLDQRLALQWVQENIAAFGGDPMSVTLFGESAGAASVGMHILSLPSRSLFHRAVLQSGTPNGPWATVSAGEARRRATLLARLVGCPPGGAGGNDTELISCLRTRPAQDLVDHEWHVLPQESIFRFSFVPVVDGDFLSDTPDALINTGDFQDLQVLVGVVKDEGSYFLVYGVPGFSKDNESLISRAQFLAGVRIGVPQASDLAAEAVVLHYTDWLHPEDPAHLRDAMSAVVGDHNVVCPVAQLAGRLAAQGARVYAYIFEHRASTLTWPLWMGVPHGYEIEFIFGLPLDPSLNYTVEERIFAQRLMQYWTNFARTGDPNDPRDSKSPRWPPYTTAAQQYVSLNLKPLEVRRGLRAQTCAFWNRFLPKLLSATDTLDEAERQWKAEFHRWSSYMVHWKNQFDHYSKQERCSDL", "test": "biochemical"}, "[2]": {"system": "rats having a lesion of the entorhinal cortex", "details": "rat, in vivo, ip"}, "young adult rats": {"system": "young adult rats", "details": "rat, in vivo; cited from earlier work"}},
  "data": [
    {"smiles": "CCCc1c(CC)c(=O)on1C(=O)N1CCCC1", "note": "[Example 1, 4-Ethyl-3-propyl-2-(1-pyrrolidinylcarbonyl)-5(2H)-isoxazolone]", "values": [
      {"measurement": "IC50", "setting": "[1]; read-out: IC50, inhibition of binding of [3H]DFP to the high-affinity binding site", "result": 4.8, "unit": "nM"},
      {"measurement": "Ki", "setting": "acetylcholinesterase", "result": "> 10000", "unit": "nM"},
      {"measurement": "selectivity (DFP binding site vs acetylcholinesterase)", "setting": "acetylcholinesterase", "result": "> 2000"},
      {"measurement": "antagonism of the learning weakness induced by lesion of the entorhinal cortex", "setting": "[2]", "result": "not capable of antagonizing the learning weakness"},
      {"measurement": "learning of the platform position", "setting": "[2]", "result": "sped up learning of the platform position considerably"},
      {"measurement": "performance level on the second day of training", "setting": "[2]", "result": "same performance level as the vehicle-treated animals after 5 days of training"}
    ]},
    {"smiles": "COP(=O)(OC)OC=C(Cl)Cl", "note": "[dichlorvos, reference compound]", "values": [
      {"measurement": "binding/affinity to the high-affinity DFP binding site ([3H]DFP competition in vitro)", "setting": "[1]", "result": "binds"}
    ]},
    {"smiles": "Nc1c2c(nc3ccccc13)CCCC2", "note": "[tacrine]", "values": [
      {"measurement": "improvement of cognitive learning ability", "setting": "young adult rats", "result": "no improvement"}
    ]}
  ]
}
